Assay results: PubChem BioAssay (NCI)
Several values for one entry are separate records, joined by “and”; a condition that tells them apart may be missing. Equal entries are not always repeated.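 A five-concentration, 48-hour dose response in 96-well plates underlies each endpoint, interpolated linearly between surrounding concentrations. Here, GI50 denotes the concentration required for 50% inhibition of growth. Definition used: TGI = concentration required for complete inhibition of growth.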 Where a SMILES comes first, the peptide text is derived from it. [ ]: non-standard residue; d: D form. ξ: configuration not given here. Pentanoyl(2-O,4-OH,5-Cl) = O=C(O)C(O)CC(O)CCl; Ile(3ξ) = CCC(C)[C@H](N)C(=O)O; NMeV = CN[C@H](C(=O)O)C(C)C; NMeA = CN[C@@H](C)C(=O)O; βAla = NCCC(=O)O

Experiments:
Test in all cases: inhibition of tumour cell growth, NCI panel, 48 h
[1] = test system: A549 NSCLC
[2] = test system: HCC-2998 colon
[3] = test system: HCT-116 colon
[4] = test system: OVCAR-3 ovarian
[5] = test system: OVCAR-5 ovarian
[6] = test system: SF-539 CNS
[7] = test system: SK-MEL-2 melanoma
[8] = test system: SR leukemia
[9] = test system: TK-10 renal
[10] = test system: U251 CNS

Compound	GI50 [1] [µM]	TGI [1]	GI50 [2] [µM]	TGI [2] [µM]	GI50 [3] [µM]	TGI [3] [µM]	GI50 [4] [µM]	TGI [4] [µM]	GI50 [5] [µM]	TGI [5] [µM]	GI50 [6] [µM]	TGI [6]	GI50 [7] [µM]	TGI [7]	GI50 [8] [µM]	TGI [8] [µM]	GI50 [9] [µM]	TGI [9]	GI50 [10] [µM]	TGI [10] [µM]
Cc1ccc(NC(=O)c2ccoc2)cc1-c1ccc(C(=O)NCC2CC2)cc1	> 19.5	> 25 µM	> 25	> 25	> 25	> 25	> 17.9	> 25	> 25	> 25	> 25	> 25 µM	> 25	> 25 µM	> 25	> 25	> 25	> 25 µM	> 25	> 25
CSC(=Nc1ccc([N+](=O)[O-])cc1C#N)NC(=O)c1ccccc1		> 100 µM		> 100		> 100		> 100		> 100		> 100 µM				> 100		> 100 µM		> 100
O=S1(=O)[C@H](c2ccccc2)c2c(-c3ccccc3)sc(-c3ccccc3)c2[C@@H]1c1ccccc1		> 100 µM		> 100				> 100		> 100		> 100 µM		> 100 µM				> 100 µM		> 100
Nc1nc(N)c2cc(S(=O)(=O)c3cccc(C(F)(F)F)c3)ccc2n1	0.816	> 100 µM	5.03	> 100	1.47	> 100	6	> 100	6.46	> 100	6.63	> 100 µM	11	73.2 µM			7.78	> 100 µM	3.52	> 100
CCCCCOC(=O)c1c(C)[nH]c(/C=C2\N=C(c3ccc[nH]3)C=C2OC)c1C	0.0293	0.184 µM	0.0285	1.39	0.0193	0.349	0.0423	0.615	0.0191	1.21	0.0306	0.725 µM	0.0222	0.0681 µM	< 0.0107	0.0403	0.047	1.72 µM	0.0219	0.461
CN1CCN(c2ccc3nc(-c4[nH]ncc4Nc4ncnc5[nH]ccc45)[nH]c3c2)CC1	1.74	15 µM	0.375	4.52	0.0665		0.233	0.759	0.418	9.19	0.176	0.496 µM	0.39	1.91 µM	0.0472		1.11	3.32 µM	0.234	11.4
CCC(=O)N1C(=S)SC[C@H]1C(=O)OC		> 100 µM		> 100		> 100		> 100		> 100		> 100 µM				> 100		> 100 µM		> 100
CN(c1ccccc1)c1nc(=[N+](C)C)ss1		> 100 µM		> 100		> 100				> 100		> 100 µM		> 100 µM				> 100 µM		> 100
C/C(=C1\C(=O)Nc2ccccc21)c1cccc(/C(C)=C2/C(=O)Nc3ccccc32)n1	7.38	> 100 µM	2.38	5.7	9.93	> 100	4.52	28.2	48.4	> 100	2.49	7.99 µM	63.4	> 100 µM	4.96	> 100			7.6	> 100
CCOC(=O)c1sc2nc(=S)[nH]c(NC(N)=S)c2c1C	31.2	90.7 µM					26.4	56.2	26.1	75.7	11.9	25.4 µM	46.7	> 100 µM	20.9	64.7	95.5	> 100 µM	17.2	36.8
CS(=O)(=O)N(CCC#N)c1ccc(/C=C2\N=C(c3ccccc3Cl)OC2=O)cc1		> 100 µM		> 100		> 100		> 100		> 100		> 100 µM		> 100 µM				> 100 µM		> 100
[N-]=[N+]=NC1C(Cl)C(=O)NC(=O)N1[C@H]1C[C@H](O)[C@@H](CO)O1 (stereo not given in full)		> 100 µM		> 100				> 100		> 100		> 100 µM		> 100 µM				> 100 µM		> 100
O=c1[nH]c(=O)n(Cc2ccc(C34CC5CC(CC(C5)C3)C4)c(O)c2)cc1F			14.5	28.1	13.3	28.5	3.74	17.8	16.1	33.4	14.7	30.1 µM	15.8	39.4 µM	5.32	19.9	15.4	33.7 µM	12.3	24.9
CCOc1ccc2c(c1)[n+]([O-])c(C(N)=O)c(N)[n+]2[O-]		> 100 µM				> 100		> 100		> 100		> 100 µM		> 100 µM		> 100				> 100
Clc1ccc2c(NC3CCC(NC4CCCCC4)CC3)ccnc2c1 (stereo not given)	4.84	17.3 µM	2.49	8.13	3.26	13.9	5.34	23.2	18.5	54.4	2.03	4.13 µM	1.97	3.95 µM			2.13	7.11 µM	3.6	13.3
CCCCCCCCCCCC(c1ccccc1)[N+](C)(C)C (stereo not given)	1.46	3.97 µM					0.815	2.35	0.998	4.97			1.51	3.06 µM			0.788	2.49 µM	1.14	2.49
O=C1C2C3SC(c4cc5ccccc5cc43)C2C(=O)N1c1ccccc1 (stereo not given)		> 100 µM		> 100		> 100		> 100		> 100		> 100 µM		> 100 µM				> 100 µM		> 100
CC(C)N1CCOC(c2ccc(O)c(O)c2)C1 (stereo not given)		> 100 µM		> 100				> 100		> 100				> 100 µM				> 100 µM		

Compound	GI50 [1] [µM]	TGI [1]	GI50 [2] [µM]	TGI [2] [µM]	GI50 [3] [µM]	TGI [3] [µM]	GI50 [4] [µM]	TGI [4] [µM]	GI50 [5] [µM]	TGI [5] [µM]	GI50 [6] [µM]	TGI [6]	GI50 [7] [µM]	TGI [7]	GI50 [8] [µM]	TGI [8] [µM]	GI50 [9] [µM]	TGI [9]	GI50 [10] [µM]	TGI [10] [µM]
COc1cc(OC)c(OC)cc1/C=C/c1ccccn1		> 10 µM		> 10		> 10		> 10		> 10		> 10 µM		> 10 µM				> 10 µM		> 10
O=S(=O)(c1ccccc1)N1CCC1c1ccccc1 (stereo not given)		> 100 µM		> 100		> 100		> 100				> 100 µM		> 100 µM				> 100 µM		> 100
Cc1cc[c]([Sb]2[O]C(CO)C(C(O)C(O)C(=O)O)[O]2)cc1 (stereo not given)	35.3	> 100 µM			33.7	> 100	> 100	> 100	29.2	75.2			21.4	45.5 µM	47.2	> 100		0.58 µM	29.1	> 100
O=c1cc(-c2cccc(Cl)c2)[nH]c2cc3c(cc12)OCO3	0.829	75 µM and 18.1 µM		4.97						> 100	0.288	1.08 µM and 1.56 µM		0.582 µM and 0.72 µM		54.7		39.3 µM and 22.4 µM		10.3
COc1ccc(-c2cc(=O)c3c(C)ccnc3[nH]2)cc1		> 100 µM		> 100	6.43	39.4	13.9	92		68.4		72.2 µM		28.1 µM				> 100 µM	6.3	> 100
O=NN(CC1(O)OCC(O)C(O)C1O)C(Cc1c[nH]c2ccccc12)C(=O)O (stereo not given)		> 100 µM		> 100		> 100		> 100		> 100		> 100 µM		> 100 µM				> 100 µM		> 100
CCOc1ccc2c(c1)[n+]([O-])c(-c1ccccc1)c(N)[n+]2[O-]		> 100 µM		> 100				> 100		> 100		> 100 µM		> 100 µM				> 100 µM		> 100
CCN(CC)CCN1C(=O)C2C3C(C)=CC(OC(C)=O)(CC3C)C2C1=O (stereo not given)	> 100	> 100 µM	> 100	> 100	> 100	> 100			> 100	> 100	> 100	> 100 µM	> 100	> 100 µM	> 100	> 100	> 100	> 100 µM	> 100	> 100
CC(C)(Sc1cc(C(C)(C)C)c(O)c(C(C)(C)C)c1)Sc1cc(C(C)(C)C)c(O)c(C(C)(C)C)c1		> 100 µM				> 100				> 100		> 100 µM		> 100 µM				> 100 µM		> 100
CCN(CC)CC(C(=O)Nc1c(C)cccc1C)/C(C)=N\NC(=S)NN (stereo not given)		> 100 µM		> 100		> 100		> 100		> 100		> 100 µM		> 100 µM				> 100 µM		> 100
CC1COS(=O)N1c1ccccc1 (stereo not given)		> 100 µM		> 100						> 100				> 100 µM				> 100 µM		> 100
CCC(C)[C@@H]1NC(=O)[C@@H]2CCCN2C(=O)C(CC(O)CCl)OC(=O)CCNC(=O)[C@H](C)N(C)C(=O)[C@H](C(C)C)N(C)C1=O (stereo not given in full) (cyclo([Ile(3ξ)][NMeV][NMeA][βAla][Pentanoyl(2-O,4-OH,5-Cl)]P))		> 100 µM				> 100		> 100		> 100		> 100 µM		1.89 µM		> 100		> 100 µM		> 100
O=C(O)CN(CCN(CC(=O)O)CC(=O)O)CCN(CC(=O)O)CC(=O)O	1.62	3.5 µM	4.42	27	3.42	12.7	3.51	9.84	4.01	20	2.86	7.98 µM	3.16	9.8 µM			2.87	7.52 µM	4.14	21.2
COc1ccc(-c2nn3ncccc3c2-c2ccnc(Nc3ccc(F)c(F)c3)n2)cc1	7.52	> 25 µM	6.72	> 25	7.15	> 25	11.8	> 25	11.6	> 25	> 19.2	> 25 µM			18.7	> 25	14.3	> 25 µM	10.3	> 25
O=C(O)c1ccccc1NS(=O)(=O)c1ccc(Cl)cc1		> 100 µM		> 100		> 100				> 100		> 100 µM		> 100 µM				> 100 µM		> 100
Cc1cc2c(cc1Cl)SC(=Nc1ccc(Cl)cc1)N(S(=O)(=O)c1ccc(Br)s1)S2(=O)=O	18	48.7 µM			14.7	27.8	15	31.1	15.7	34.1	2.01	9.93 µM	35.3	> 100 µM	5.11	> 100	19.9	49.6 µM	8.57	21.4
[Cu].c1ccc2c(c1)C1=NC2=NC2=NC(=NC3=NC(=NC4=NC(=N1)c1ccccc14)c1ccccc13)c1ccccc12	> 100	> 100 µM	> 100	> 100	> 100	> 100	> 100	> 100	> 100	> 100			> 100	> 100 µM			> 100	> 100 µM	> 100	> 100
